The source of these data is US10081624B2, “Heterocyclic compound” (Takeda Pharmaceutical Company Limited, priority 2014, dated 2018).

Assay [1] addresses T1, HDAC1 enzyme (Homo sapiens, UniProt Q13547).
T1 construct: prepared by transducing full length HDAC1 and HDAC6 genes into Sf-9 insect cells; GST; purchased SignalChem; host or cells: Sf-9 insect cells
Briefly: HDAC1 enzyme inhibitory assay (HDAC-Glo I/II Assay kit). Type of assay: biochemical. As to conditions: 1 μM test compound; read-out: HDAC1 inhibitory rate (%) (1 μM). A digest of the protocol: (§1)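 Full-length GST-purified HDAC1 or HDAC6 (Sf-9 expressed) preincubated 60 min at room temperature with compound in Tris-HCl pH 7.5 buffer with glutathione and Tween-20. HDAC-Glo substrate-developer added, 20 min at room temperature, then luminescence read; inhibition relative to no-enzyme wells as 100%.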

For assay [2], the target named is T2, HDAC6 enzyme (Homo sapiens, UniProt Q9UBN7).
T2 construct: prepared by transducing full length HDAC1 and HDAC6 genes into Sf-9 insect cells; GST; purchased SignalChem; host or cells: Sf-9 insect cells
T2 sequence (Q9UBN7 1-1215): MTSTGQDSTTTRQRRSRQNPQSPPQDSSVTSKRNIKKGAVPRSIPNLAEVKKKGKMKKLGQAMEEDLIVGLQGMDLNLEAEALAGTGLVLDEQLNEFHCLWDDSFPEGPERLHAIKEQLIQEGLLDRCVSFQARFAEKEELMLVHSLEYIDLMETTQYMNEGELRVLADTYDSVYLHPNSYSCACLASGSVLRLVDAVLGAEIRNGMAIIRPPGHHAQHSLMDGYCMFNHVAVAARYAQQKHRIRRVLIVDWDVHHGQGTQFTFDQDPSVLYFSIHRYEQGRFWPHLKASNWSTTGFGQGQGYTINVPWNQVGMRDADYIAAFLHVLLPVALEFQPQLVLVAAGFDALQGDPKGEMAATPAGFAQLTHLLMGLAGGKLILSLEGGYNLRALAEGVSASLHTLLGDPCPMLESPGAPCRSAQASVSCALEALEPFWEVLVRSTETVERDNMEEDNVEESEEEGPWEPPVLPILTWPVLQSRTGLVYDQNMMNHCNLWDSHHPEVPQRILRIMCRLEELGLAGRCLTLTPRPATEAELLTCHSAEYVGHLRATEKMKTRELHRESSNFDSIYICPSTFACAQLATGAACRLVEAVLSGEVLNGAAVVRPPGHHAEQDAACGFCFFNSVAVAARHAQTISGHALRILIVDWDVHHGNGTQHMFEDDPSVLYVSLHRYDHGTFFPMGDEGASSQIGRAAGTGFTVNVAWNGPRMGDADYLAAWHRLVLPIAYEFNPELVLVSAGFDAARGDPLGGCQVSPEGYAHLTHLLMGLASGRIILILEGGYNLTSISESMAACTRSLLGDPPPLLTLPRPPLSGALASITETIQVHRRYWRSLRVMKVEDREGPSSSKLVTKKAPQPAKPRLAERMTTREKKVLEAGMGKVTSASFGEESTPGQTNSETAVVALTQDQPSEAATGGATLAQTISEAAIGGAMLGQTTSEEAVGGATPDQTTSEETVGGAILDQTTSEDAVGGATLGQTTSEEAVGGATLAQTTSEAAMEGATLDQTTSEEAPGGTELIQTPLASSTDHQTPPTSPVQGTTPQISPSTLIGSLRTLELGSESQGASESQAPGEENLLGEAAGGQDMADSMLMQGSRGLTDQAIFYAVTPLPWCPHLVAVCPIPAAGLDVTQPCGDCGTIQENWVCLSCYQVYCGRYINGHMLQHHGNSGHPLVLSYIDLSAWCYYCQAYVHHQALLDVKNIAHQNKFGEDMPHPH
Briefly: HDAC6 enzyme inhibitory assay (HDAC-Glo I/II Assay kit). The assay is classed as biochemical. As to conditions: 1 μM test compound; read-out: HDAC6 inhibitory rate (%) (1 μM). The method, boiled down:
as §1

T1 sequence (Q13547 whole entry): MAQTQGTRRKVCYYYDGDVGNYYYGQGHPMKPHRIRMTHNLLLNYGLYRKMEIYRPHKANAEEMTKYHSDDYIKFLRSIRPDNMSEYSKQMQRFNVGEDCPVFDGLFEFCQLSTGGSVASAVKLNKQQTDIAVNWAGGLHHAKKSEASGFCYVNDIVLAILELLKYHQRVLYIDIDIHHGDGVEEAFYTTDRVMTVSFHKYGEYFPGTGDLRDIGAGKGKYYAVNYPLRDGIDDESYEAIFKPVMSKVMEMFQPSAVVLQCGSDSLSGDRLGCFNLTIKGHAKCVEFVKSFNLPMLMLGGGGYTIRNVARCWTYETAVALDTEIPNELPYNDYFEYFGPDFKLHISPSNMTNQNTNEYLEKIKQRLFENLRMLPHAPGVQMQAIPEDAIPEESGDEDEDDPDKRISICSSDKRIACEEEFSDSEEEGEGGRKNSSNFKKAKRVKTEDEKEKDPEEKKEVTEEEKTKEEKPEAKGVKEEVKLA

As for `O=C(NC[C@@H]1COCCN1C(=O)c1cc(Cl)cc(Cl)c1)c1ccc(-c2noc(C(F)(F)F)n2)cn1` [Example 209, N-(((3R)-4-(3,5-dichlorobenzoyl)morpholin-3-yl)methyl)-5-(5-(trifluoromethyl)-1,2,4-oxadiazol-3-yl)pyridine-2-carboxamide], the inhibition at 1 µM in assay [1] was 21%; in assay [2], 95%.

On to `O=C(NCC1COCCN1C(=O)c1ccccc1)c1ccc(-c2noc(C(F)(F)F)n2)s1` (stereo not shown) [Example 210, N-((4-benzoylmorpholin-3-yl)methyl)-5-(5-(trifluoromethyl)-1,2,4-oxadiazol-3-yl)thiophene-2-carboxamide], for which the inhibition at 1 µM in assay [1] turned out to be 23%; in assay [2] it was 96%.

`O=C(NCC1COCCN1C(=O)c1cc(Cl)cc(Cl)c1)c1ccc(-c2noc(C(F)(F)F)n2)s1` (stereo not shown) [Example 211, N-((4-(3,5-dichlorobenzoyl)morpholin-3-yl)methyl)-5-(5-(trifluoromethyl)-1,2,4-oxadiazol-3-yl)thiophene-2-carboxamide]: the inhibition at 1 µM in assay [1] was determined as 15%; in assay [2], 96%.

For the molecule `O=C(NCC1COCCN1C(=O)c1cccc(-c2ccccc2)c1)c1ccc(-c2noc(C(F)(F)F)n2)s1` (stereo not shown) [Example 222, N-((4-(biphenyl-3-ylcarbonyl)morpholin-3-yl)methyl)-5-(5-(trifluoromethyl)-1,2,4-oxadiazol-3-yl)thiophene-2-carboxamide], the inhibition at 1 µM in assay [1] was found to be 7%; in assay [2], 89%.

Take `Cc1oncc1C(=O)N1CCOCC1CNC(=O)c1ccc(-c2noc(C(F)(F)F)n2)s1` (stereo not shown) [Example 235, N-((4-((5-methyl-1,2-oxazol-4-yl)carbonyl)morpholin-3-yl)methyl)-5-(5-(trifluoromethyl)-1,2,4-oxadiazol-3-yl)thiophene-2-carboxamide]: the inhibition at 1 µM in assay [1] was 17%; in assay [2] it was 99%.

In the case of `Cc1nonc1C(=O)N1CCOCC1CNC(=O)c1ccc(-c2noc(C(F)(F)F)n2)s1` (stereo not shown) [Example 236, N-((4-((4-methyl-1,2,5-oxadiazol-3-yl)carbonyl)morpholin-3-yl)methyl)-5-(5-(trifluoromethyl)-1,2,4-oxadiazol-3-yl)thiophene-2-carboxamide], the inhibition at 1 µM in assay [1] is 43%; in assay [2] it was 98%.

As to `Cc1nnsc1C(=O)N1CCOCC1CNC(=O)c1ccc(-c2noc(C(F)(F)F)n2)s1` (stereo not shown) [Example 237, N-((4-((4-methyl-1,2,3-thiadiazol-5-yl)carbonyl)morpholin-3-yl)methyl)-5-(5-(trifluoromethyl)-1,2,4-oxadiazol-3-yl)thiophene-2-carboxamide], the inhibition at 1 µM in assay [1] stood at 27%; in assay [2], 98%.

Regarding `O=C(NCC1COCCN1C(=O)C(F)(F)c1ccccc1)c1ccc(-c2noc(C(F)(F)F)n2)s1` (stereo not shown) [Example 246, N-((4-(difluoro(phenyl)acetyl)morpholin-3-yl)methyl)-5-(5-(trifluoromethyl)-1,2,4-oxadiazol-3-yl)thiophene-2-carboxamide], the inhibition at 1 µM in assay [1] was determined as 52%; in assay [2], 99%.

Consider `CC(C)(C(=O)N1CCOCC1CNC(=O)c1ccc(-c2noc(C(F)(F)F)n2)s1)c1ccccc1` (stereo not shown) [Example 247, N-((4-(2-methyl-2-phenylpropanoyl)morpholin-3-yl)methyl)-5-(5-(trifluoromethyl)-1,2,4-oxadiazol-3-yl)thiophene-2-carboxamide], for which the inhibition at 1 µM in assay [1] stood at 18%; in assay [2], 98%.

Consider `O=C(NCC1COCCN1C(=O)C1(c2ccccc2)CC1)c1ccc(-c2noc(C(F)(F)F)n2)s1` (stereo not shown) [Example 248, N-((4-((1-phenylcyclopropyl)carbonyl)morpholin-3-yl)methyl)-5-(5-(trifluoromethyl)-1,2,4-oxadiazol-3-yl)thiophene-2-carboxamide], for which the figures for the inhibition at 1 µM in assay [1] and in assay [2] were 18% and 97%, respectively.

With `Cn1nc2ccccc2c1C(=O)N1CCOCC1CNC(=O)c1ccc(-c2noc(C(F)(F)F)n2)s1` (stereo not shown) [Example 251, N-((4-((2-methyl-2H-indazol-3-yl)carbonyl)morpholin-3-yl)methyl)-5-(5-(trifluoromethyl)-1,2,4-oxadiazol-3-yl)thiophene-2-carboxamide], the inhibition at 1 µM in assay [1] worked out at 36%; in assay [2], 96%.

Take `O=C(NCC1COCCN1C(=O)C1CCCCC1)c1ccc(-c2noc(C(F)(F)F)n2)s1` (stereo not shown) [Example 254, N-((4-(cyclohexylcarbonyl)morpholin-3-yl)methyl)-5-(5-(trifluoromethyl)-1,2,4-oxadiazol-3-yl)thiophene-2-carboxamide]: the inhibition at 1 µM in assay [1] was 33%; in assay [2] it was 98%.

For `O=C(NCC1COCCN1C(=O)C1C2CC3CC(C2)CC1C3)c1ccc(-c2noc(C(F)(F)F)n2)s1` (stereo not shown) [Example 256, N-((4-(adamantan-2-ylcarbonyl)morpholin-3-yl)methyl)-5-(5-(trifluoromethyl)-1,2,4-oxadiazol-3-yl)thiophene-2-carboxamide], the figures for the inhibition at 1 µM in assay [1] and in assay [2] were 34% and 99%, respectively.

With `Cc1oncc1C(=O)N1CCOC[C@@H]1CNC(=O)c1ccc(-c2noc(C(F)(F)F)n2)s1` [Example 259, N-(((3S)-4-((5-methyl-1,2-oxazol-4-yl)carbonyl)morpholin-3-yl)methyl)-5-(5-(trifluoromethyl)-1,2,4-oxadiazol-3-yl)thiophene-2-carboxamide], the figures for the inhibition at 1 µM in assay [1] and in assay [2] were 25% and 100%, respectively.

As for `Cc1nonc1C(=O)N1CCOC[C@@H]1CNC(=O)c1ccc(-c2noc(C(F)(F)F)n2)s1` [Example 260, N-(((3S)-4-((4-methyl-1,2,5-oxadiazol-3-yl)carbonyl)morpholin-3-yl)methyl)-5-(5-(trifluoromethyl)-1,2,4-oxadiazol-3-yl)thiophene-2-carboxamide], the inhibition at 1 µM in assay [1] was found to be 44%; in assay [2], 98%.

On to `O=C(NC[C@H]1COCCN1C(=O)C(F)(F)c1ccccc1)c1ccc(-c2noc(C(F)(F)F)n2)s1` [Example 261, N-(((3S)-4-(difluoro(phenyl)acetyl)morpholin-3-yl)methyl)-5-(5-(trifluoromethyl)-1,2,4-oxadiazol-3-yl)thiophene-2-carboxamide], for which the inhibition at 1 µM in assay [1] worked out at 53%; in assay [2] it was 101%.

`O=C(NC[C@H]1COCCN1C(=O)c1cccc(-c2ccccc2)c1)c1ccc(-c2noc(C(F)(F)F)n2)s1` [Example 262, N-(((3S)-4-(biphenyl-3-ylcarbonyl)morpholin-3-yl)methyl)-5-(5-(trifluoromethyl)-1,2,4-oxadiazol-3-yl)thiophene-2-carboxamide]: the inhibition at 1 µM in assay [1] was 16%; in assay [2] it was 94%.

As to `CC(C)(C(=O)N1CCOC[C@@H]1CNC(=O)c1ccc(-c2noc(C(F)(F)F)n2)s1)c1ccccc1` [Example 263, N-(((3S)-4-(2-methyl-2-phenylpropanoyl)morpholin-3-yl)methyl)-5-(5-(trifluoromethyl)-1,2,4-oxadiazol-3-yl)thiophene-2-carboxamide], the results for the inhibition at 1 µM in assay [1] and in assay [2] were 32% and 99%, respectively.

Take `Cc1nonc1C(=O)N1CCOC[C@H]1CNC(=O)c1ccc(-c2noc(C(F)(F)F)n2)s1` [Example 264, N-(((3R)-4-((4-methyl-1,2,5-oxadiazol-3-yl)carbonyl)morpholin-3-yl)methyl)-5-(5-(trifluoromethyl)-1,2,4-oxadiazol-3-yl)thiophene-2-carboxamide]: the values for the inhibition at 1 µM in assay [1] and in assay [2] were 48% and 99%, respectively.

Consider `O=C(NC[C@@H]1COCCN1C(=O)C(F)(F)c1ccccc1)c1ccc(-c2noc(C(F)(F)F)n2)s1` [Example 265, N-(((3R)-4-(difluoro(phenyl)acetyl)morpholin-3-yl)methyl)-5-(5-(trifluoromethyl)-1,2,4-oxadiazol-3-yl)thiophene-2-carboxamide], for which the values for the inhibition at 1 µM in assay [1] and in assay [2] were 76% and 99%, respectively.
